32 compounds from patent publication US6620839B2, “1,3-disubstituted and 1,3,3-trisubstituted pyrrolidines as histamine-3 receptor ligands and their therapeutic applications” (Abbott Laboratories, priority 2000, dated 2003) can be followed below.

SMILES strings stand for the structures.

As usually defined, the Ki is the dissociation constant of the complex between target and ligand, obtained from inhibition or displacement. Higher therefore signals weaker binding.

For the assay, the target named is T1, histamine-3 receptor (Rattus norvegicus, UniProt Q9QYN8).
T1 construct: from tissue; host or cells: male Sprague-Dawley rat brain cortex membranes
T1 sequence (Q9QYN8 whole entry): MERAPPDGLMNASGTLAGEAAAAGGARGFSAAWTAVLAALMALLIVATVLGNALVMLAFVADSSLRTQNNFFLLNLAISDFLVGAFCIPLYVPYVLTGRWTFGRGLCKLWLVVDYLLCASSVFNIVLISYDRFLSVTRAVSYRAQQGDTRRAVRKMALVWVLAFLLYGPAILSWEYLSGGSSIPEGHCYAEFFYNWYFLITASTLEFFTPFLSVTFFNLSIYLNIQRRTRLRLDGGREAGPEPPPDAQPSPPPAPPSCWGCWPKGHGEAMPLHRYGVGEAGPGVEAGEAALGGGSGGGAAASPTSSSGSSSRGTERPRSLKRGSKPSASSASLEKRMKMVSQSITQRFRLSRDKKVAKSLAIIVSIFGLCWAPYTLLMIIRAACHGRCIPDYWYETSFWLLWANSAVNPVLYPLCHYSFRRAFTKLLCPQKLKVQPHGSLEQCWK
In words: Histamine-3 receptor binding, (3H)-N-α-methylhistamine displacement in rat cortical membranes. The following applies: male Sprague-Dawley rat brain cortical membranes; (3H)-N-α-methylhistamine ~0.6 nM; 30 minutes at 25° C.; Cheng-Prusoff. The protocol: Briefly, male Sprague-Dawley rat brain cortices were homogenized (1 g tissue/10 mL buffer) in 50 mM Tris-HCl/5 mM EDTA containing protease inhibitor cocktail (Calbiochem) using a polytron set at 20,500 rpm. Homogenates were centrifuged for 20 minutes at 40,000×g. The supernatant was decanted, and pellets were weighed. The pellet was resuspended by polytron homogenization in 40 mL 50 mM Tris-HCl/5 mM EDTA with protease inhibitors and centrifuged for 20 minutes at 40,000×g. […] Test compounds were dissolved in DMSO to provide 20 mM solution, serially diluted and then added to the incubation mixtures prior to initiating the incubation assay by addition of the membranes. Thioperamide (3 μM) was used to determine nonspecific binding. Binding incubations were conducted for 30 minutes at 25° C. and terminated by addition of 2 mL of ice cold 50 mM Tris-HCl (pH 7.7) and filtration through 0.3% polyethylenimine-soaked Unifilter plates (Packard). These filters were washed 4 additional times with 2 mL of ice-cold 50 mM Tris-HCl and dried for 1 hour. Radioactivity was determined using liquid scintillation counting techniques. Results were analyzed by Hill transformation and Ki values were determined using the Cheng-Prusoff equation.
`Cc1cc(-c2ccc(OCCCN3CC[C@@H](N(C)C)C3)cc2)ccc1C#N` [Example 164, 4′-{3-[(3R)-3-(dimethylamino)-1-pyrrolidinyl]propoxy}-3-methyl-1,1′-biphenyl-4-carbonitrile]: affinity was put at a Ki of 48 nM.
Consider `Cc1ccc(S(=O)(=O)N[C@@H]2CCN(CCCOc3ccc(C(=O)C4CC4)cc3)C2)cc1Cl` [Example 87, 3-chloro-N-((3R)-1-{3-[4-(cyclopropylcarbonyl)phenoxy]propyl}pyrrolidinyl)-4-methylbenzenesulfonamide], for which the Ki is 4.9 nM.
The compound `N#Cc1ccc(-c2ccc(OCCCN3CC[C@@H](NS(=O)(=O)c4cccs4)C3)cc2)cc1` [Example 36] gave an inhibition constant Ki of 12 nM.
Turning to `Cc1ccccc1S(=O)(=O)N[C@@H]1CCN(CCCOc2ccc(C(=O)C3CC3)cc2)C1` [Example 64, N-((3R)-1-{3-[4-(cyclopropylcarbonyl)phenoxy]propyl}pyrrolidinyl)-2-methylbenzenesulfonamide], the Ki stood at 11 nM.
Next, `CN(C)C(=O)N[C@@H]1CCN(CCCOc2ccc(-c3ccc(C#N)cc3)cc2)C1` [Example 135]: 132 nM; `N#Cc1ccc(C(=O)N[C@@H]2CCN(CCCOc3ccc(-c4ccc(C#N)cc4)cc3)C2)cc1` [Example 140, 4-cyano-N-((3R)-1-{3-[(4′-cyano[1,1′-biphenyl]-4-yl)oxy]propyl}pyrrolidinyl)benzamide]: 220 nM.
Next, `O=C(c1ccc(OCCCN2CC[C@@H](NS(=O)(=O)c3ccccc3)C2)cc1)C1CC1` [Example 55, N-((3R)-1-{3-[4-(cyclopropylcarbonyl)phenoxy]propyl}pyrrolidinyl)benzenesulfonamide]: 2.9 nM.
Turning to `O=C(c1ccc(OCCCN2CC[C@@H](NS(=O)(=O)c3ccccc3OC(F)(F)F)C2)cc1)C1CC1` [Example 89, N-((3R)-1-{3-[4-(cyclopropylcarbonyl)phenoxy]propyl}pyrrolidinyl)-2-(trifluoromethoxy)benzenesulfonamide], affinity was put at a Ki of 11 nM.
On to `CCCCOc1ccc(S(=O)(=O)N[C@@H]2CCN(CCCOc3ccc(C(=O)C4CC4)cc3)C2)cc1` [Example 85, 4-butoxy-N-((3R)-1-{3-[4-(cyclopropylcarbonyl)phenoxy]propyl}pyrrolidinyl)benzenesulfonamide], for which the Ki came out at 5.3 nM.
In turn, `CC(=O)c1ccc(OCCCN2CC[C@@H](NS(=O)(=O)c3cccc4cnccc34)C2)cc1` [Example 75, N-{(3R)-1-[3-(4-acetylphenoxy)propyl]pyrrolidinyl}-5-isoquinolinesulfonamide] registered a Ki of 19 nM.
`N#Cc1ccc(-c2ccc(OCCCN3CC[C@@H](NS(=O)(=O)c4ccccc4OC(F)(F)F)C3)cc2)cc1` [Example 45] came in with a Ki of 127 nM.
Take `N#Cc1ccccc1S(=O)(=O)N[C@@H]1CCN(CCCOc2ccc(C(=O)C3CC3)cc2)C1` [Example 90, 2-cyano-N-((3R)-1-{3-[4-(cyclopropylcarbonyl)phenoxy]propyl}pyrrolidinyl)benzenesulfonamide]: the affinity corresponds to a Ki of 11 nM.
For `CC(=O)c1ccc(OCCCN2CC[C@@H](NS(=O)(=O)C(C)C)C2)cc1` [Example 6, N-{(3R)-1-[3-(4-acetylphenoxy)propyl]pyrrolidinyl}-2-propanesulfonamide], the affinity, expressed as Ki, was 95 nM.
Next, `Cc1ccc(S(=O)(=O)N[C@@H]2CCN(CCCOc3ccc(-c4ccc(C#N)cc4)cc3)C2)cc1` [Example 22]: 12 nM; `CC(=O)c1ccc(OCCCN2CC[C@@H](NS(=O)(=O)c3ccc(Cl)c(Cl)c3)C2)cc1` [Example 77, N-{(3R)-1-[3-(4-acetylphenoxy)propyl]pyrrolidinyl}-3,4-dichlorobenzenesulfonamide]: 5.3 nM.
In the case of `CC(=O)N(C)[C@@H]1CCN(CCCOc2ccc(-c3ccc(C#N)cc3)cc2)C1` [Example 111], affinity was put at a Ki of 11 nM.
On to `N#Cc1ccc(-c2ccc(OCCCN3CC[C@@H](NC(=O)c4ccco4)C3)cc2)cc1` [Example 142], for which the Ki amounted to 321 nM.
With `CN(C)S(=O)(=O)N(C)[C@@H]1CCN(CCCOc2ccc(-c3ccc(C#N)cc3)cc2)C1` [Example 124], the Ki turned out to be 2.9 nM.
In turn, `O=C(c1ccc(OCCCN2CC[C@@H](NS(=O)(=O)c3cccc4cccnc34)C2)cc1)C1CC1` [Example 84, N-((3R)-1-{3-[4-(cyclopropylcarbonyl)phenoxy]propyl}pyrrolidinyl)-8-quinolinesulfonamide] showed a Ki of 9.5 nM.
The compound `O=C(c1ccc(OCCCN2CC[C@@H](NS(=O)(=O)c3cccc(C(F)(F)F)c3)C2)cc1)C1CC1` [Example 62, N-((3R)-1-{3-[4-(cyclopropylcarbonyl)phenoxy]propyl}pyrrolidinyl)-3-(trifluoromethyl)benzenesulfonamide] returned a Ki of 6.4 nM.
As for `N#Cc1ccc(-c2ccc(OCCCN3CC[C@@H](NS(=O)(=O)c4ccc(C#N)cc4)C3)cc2)cc1` [Example 33, 4-cyano-N-((3R)-1-{3-[(4′-cyano[1,1′-biphenyl]-4-yl)oxy]propyl}pyrrolidinyl)benzenesulfonamide], the Ki is 16 nM.
With `CN(C)C(=O)N(C(=O)N(C)C)[C@@H]1CCN(CCCOc2ccc(-c3ccc(C#N)cc3)cc2)C1` [Example 148] the figure was 291 nM.
`CN(C)[C@@H]1CCN(CCCOc2ccc(-c3ccc(C#N)c(F)c3)cc2)C1` [Example 166, 4′-{3-[(3R)-3-(dimethylamino)-1-pyrrolidinyl}propoxy]-3-fluoro-1,1′-biphenyl-4-carbonitrile] registered a Ki of 73 nM.
For `N#Cc1ccc(-c2ccc(OCCCN3CC[C@@H](N(C(=O)N4CCOCC4)C(=O)N4CCOCC4)C3)cc2)cc1` [Example 150], the Ki came out at 267 nM.
The compound `CN(C)[C@@H]1CCN(CCCOc2ccc(-c3ccc(C#N)cc3)cc2I)C1` [Example 169, 4′-{3-[(3R)-3-(dimethylamino)-1-pyrrolidinyl]propoxy}-3 ′-iodo-1,1′-biphenyl-4-carbonitrile] yielded a Ki of 206 nM.
Consider `N#Cc1ccc(-c2ccc(OCCCN3CC[C@@H](N(C(=O)N4CCCC4)C(=O)N4CCCC4)C3)cc2)cc1` [Example 149], for which the Ki worked out at 329 nM.
The compound `COc1ccc(S(=O)(=O)N[C@@H]2CCN(CCCOc3ccc(-c4ccc(C#N)cc4)cc3)C2)cc1` [Example 20] returned a Ki of 12 nM.
In the case of `COc1ccc(S(=O)(=O)N[C@@H]2CCN(CCCOc3ccc(-c4ccccn4)cc3)C2)cc1` [Example 101, 4-methoxy-N-((3R)-1-{3-[4-(2-pyridinyl)phenoxy]propyl}pyrrolidinyl)benzenesulfonamide], the Ki worked out at 179 nM.
With `N#Cc1ccc(-c2ccc(OCCCN3CC[C@@H](NS(=O)(=O)c4ccc(Cl)c(Cl)c4)C3)cc2)cc1` [Example 54, 3,4-dichloro-N-((3R)-1-{3-[(4′-cyano[1,1′-biphenyl]-4-yl)oxy]propyl}pyrrolidinyl)benzenesulfonamide], the Ki was 98 nM.
`CCCCOc1ccc(S(=O)(=O)N[C@@H]2CCN(CCCOc3ccc(-c4ccc(C#N)cc4)cc3)C2)cc1` [Example 41, 4-butoxy-N-((3R)-1-{3-[(4′-cyano[1,1′-biphenyl]-4-yl)oxy]propyl}pyrrolidinyl)benzenesulfonamide] yielded a Ki of 48 nM.
The compound `CN(C)S(=O)(=O)N[C@@H]1CCN(CCCOc2ccc(-c3ccc(C#N)cc3)cc2)C1` [Example 145] showed a Ki of 9.6 nM.
Consider `N#Cc1ccc(-c2ccc(OCCCN3CC[C@@H](NC(=O)c4ccc(F)cc4)C3)cc2)cc1` [Example 139], for which the Ki was 288 nM.
